Reference: patent US9198879B2, “Pharmacologically optimized multimodal drug delivery system for nordihydroguiaretic acid (NDGA)” (Napo Pharmaceuticals, Inc., priority 2011, dated 2015)
“Also recorded” adds a separate entry of the source.

Experiments:
Fat/STZ rats = assay: Fat/STZ rat model, oral NDGA in CMC, PEG or Gelucire vehicles: glucose, triglycerides, FFA; type: in vivo; conditions: for glucose: versus 366+/−32; for glucose levels: 250 mg/kg twice daily
Protocol: In these studies, a variety of rodent models were used to evaluate the glucose-lowering properties and its effects on lipids, such as lowering of triglycerides. NDGA was administered orally to animals over a wide range of doses (10 to 350) mg/kg.
In this experiment, NDGA was dissolved in the following: • CMC: 0.25% carboxymethylcellulose • Gelucire: “Gelucire 44/14 (Gatefosse, Wildwood, N.J.; a well-defined mixture of mono-, di-, and tri-glycerides and mono- and di-fatty acid esters of polyethylene glycol) • PEG: 85% polyethylenene glycol, 10% tween and 5% propanediol
(§1) In this study, the following animal models where used: • Db/db mice: homozygous mice are a model of obesity, diabetes and dyslipedemia where their leptin receptor activity is deficient. • Ob/ob mice: obese mice with diabetes. • Db/lean mice: heterozygous mice that are not diabetic. • Fat/STZ rats: non-genetically diabetic overweight rats that are fed diets enriched in fat and made hyperglycemic by chemically removing their pancreatic function to reduce insulin production by treating them with streptozotocin (STZ). • Fructose/STZ rats: non-diabetic rats that are fed diets enriched in fructose and made hyperglycemic by treating them with STZ. • ZDF rats: obese and hyperglycemic rats with other metabolic disorders.
(§2) Baseline glucose and triglyceride concentrations, where appropriate, were measured for both diabetic and normal animals.

[1] = system: fructose-fed hypertriglyceridemic rats; assay: Fructose-fed hypertriglyceridemic rat model; type: in vivo
From the text: It is likely that the triglyceride-lowering effect of NDGA may also be explained, at least in part, by the suppression of free fatty acid (FFA) release. Free fatty acids in the circulation can enter the liver and can be re-assembled into triglycerides by the process of re-esterification. […] It should be noted that other mechanisms for reducing triglycerides, such as increased triglyceride clearance, are not ruled out by these findings.
These reductions in free fatty acid concentration could result from either decreased production (by reduced lipolysis) or increased removal of free fatty acids from the circulation by liver, fat or muscle.

[2] = system: fructose-fed and fat-fed/STZ rat models; assay: NDGA versus metformin at equimolar doses in fructose-fed and fat-fed/STZ rat models; type: in vivo
From the text: NDGA has been studied by administering it orally to animals to determine its effectiveness for lowering glucose, free fatty acid (FFA) and triglyceride levels. […] See Example 2 below. […] There was no significant baseline difference between the NDGA and metformin groups.
In one such study, the effects of NDGA and metformin as a control drug for treatment of diabetes were studied in a non-diabetic model of hypertriglyceridemia (fructose-fed) and a non-genetic, (i.e., streptozotocin (STZ) treated) model of diabetes. […] See FIGS. 2 (glucose) and 3 (triglycerides).

ZDF rats = assay: Glucose and triglyceride lowering in ZDF rats; type: in vivo, rat
From the text: as §1, §2

fat/STZ rat = assay: Basal hepatic glucose production by intravenous infusion of radiolabeled glucose; type: in vivo; conditions: no insulin infused, p<0.05
Protocol: Studies were also conducted to determine the mechanism by which NDGA lowers glucose. To do so, NDGA was administered to determine the effects of NDGA on insulin-stimulated glucose disposition and on basal hepatic glucose production using the high fat diet fed/streptozotocin (STZ) rat model of NIDDM. Whole-body insulin-stimulated glucose disposition was measured using a constant intravenous glucose/insulin infusion, in which the steady-state plasma insulin concentration (SSPI) is held constant and the steady-state plasma glucose concentration (SSPG) is a measure of net glucose clearance. […] In these same studies basal hepatic glucose production was measured using an intravenous infusion of radiolabeled glucose (no insulin was infused).
Studies were conducted to determine the effects of NDGA (masoprocol) on insulin-stimulated glucose disposition and on basal hepatic glucose production using the fat/STZ rat. Whole-body insulin-stimulated glucose disposition was measured using a constant intravenous glucose/insulin infusion, in which the steady-state plasma insulin concentration (SSPI) is held constant and the steady-state plasma glucose concentration (SSPG) is a measure of net glucose clearance.

cecum = conditions: in vivo; cited from earlier work
[3] = system: high fat diet-fed/STZ rat model; assay: Liver and muscle glycogen content after NDGA treatment; type: in vivo
Protocol: In the high fat diet-fed/STZ rat model, liver and muscle glycogen content was measured after treatment with NDGA versus vehicle. Treatment with NDGA had no effect on muscle glycogen levels when compared to control.

Db/db mice = assay: Glucose lowering in db/db mice; type: in vivo, mouse; conditions: db/db mice with diabetes, given orally
From the text: as §1, §2

[4] = equimolar doses of NDGA or metformin

CC(Cc1ccc(O)c(O)c1)C(C)Cc1ccc(O)c(O)c1 (stereo not shown) [NDGA, nordihydroguaiaretic acid]
triglyceride levels (Fat/STZ rats; Fat/STZ rat, 40 mg/Kg once daily (QD), CMC delivery vehicle, 327 +/−25 without NDGA, no significant lowering): 270 ± 26 mg/dL | triglyceride levels (Fat/STZ rats; Fat/STZ rat, 40 mg/kg QD, Gelucire delivery vehicle, 674+/−84 without NDGA, significant lowering): 312 ± 38 mg/dL | glucose (Fat/STZ rats; Fat/STZ rat, 40 mg/kg QD, Gelucire vehicle): 299 ± 25 mg/dL | glucose (Fat/STZ rats; Fat/STZ rat, 250 mg/kg QD, Gelucire vehicle): 325 ± 26 mg/dL | triglyceride (Fat/STZ rats; Fat/STZ rat, 250 mg/kg QD, Gelucire vehicle, versus 674+/−84): 249 ± 42 mg/dL | glucose levels (Fat/STZ rats; Fat/STZ rat, Gelucire vehicle, 497+/−22 without NDGA, significant lowering): 380+/−28 | glucose levels (Fat/STZ rats; Fat/STZ rat, PEG delivery vehicle, 393+/−20 without NDGA, no significant lowering): 364+/−20 | glucose lowering (Fat/STZ rats; Fat/STZ rats, given orally): significantly lowers glucose | free fatty acid (FFA) concentrations (Fat/STZ rats; fat-fed/STZ rats): decreases free fatty acid (FFA) concentrations | plasma triglyceride lowering (Fat/STZ rats; fat-fed/STZ rats): significantly and dramatically lowered plasma triglycerides | glucose lowering (Fat/STZ rats; fat/STZ rat, single daily dose of 150 mg/kg): ineffective in lowering glucose | free fatty acid (FFA) concentrations ([1]; fructose-fed hypertriglyceridemic rats): decreases free fatty acid (FFA) concentrations | glucose lowering ([1]; fructose-fed rats, 80 mg/kg twice daily): did not lower glucose levels | triglyceride lowering ([1]; hypertriglyceridemic rat model, low doses of 10 and 20 mg/kg): triglyceride-lowering effects | change in insulin concentrations [2, 4]: without changing insulin concentration; also recorded: without any change in insulin concentrations | glucose lowering in comparison to the vehicle control [2, 4]: significantly lowered glucose | triglyceride lowering in comparison to the vehicle control [2, 4]: significantly lowered triglycerides | lowering of triglyceride concentrations in comparison to vehicle ([2]; equimolar dosing with metformin): 80% | plasma triglyceride lowering (ZDF rats): significantly and dramatically lowered plasma triglycerides | glucose lowering (ZDF rats; given orally): significantly lowers glucose | hourly hepatic glucose production compared to vehicle (fat/STZ rat): significantly reduced hourly hepatic glucose production | lesions in the cecum (cecum): known to cause lesions in the cecum | effect on muscle glycogen levels ([3]; compared to control): no effect | reduction of liver glycogen concentrations ([3]; versus vehicle): approximately 75% | glucose lowering (Db/db mice): significantly lowers glucose
